{"source": "paper PMC3809593", "about": "(BioMed Research International, 2013)", "key": {"[1]": {"system": "MDA-MB-231 (breast adenocarcinoma) tumour cell line", "assay": "PE Annexin V / 7-AAD flow cytometry apoptosis assay", "assay_type": "cell-based, human", "details": "MDA-MB231, 72 h in RPMI, 5000 events/well; for Q1—dead cells (7-AAD+): negative control 1.8; for Q2—late apoptosis cells (7-AAD+ Annexin V+): negative control 3; for Q4—early apoptosis cells (Annexin V+ 7-AAD−): negative control 4.7; for Q3—living cells (7-AAD− Annexin V−): negative control 90.5", "method": "(§1) We analysed the cytotoxicity of the peptide chosen for our study in relation to two adherent tumour cell lines: MDA-MB-231 (breast adenocarcinoma) and M14K (human mesothelioma). These lines were cultivated in the same conditions as those used for the optimization of the number of target cells. The negative control was represented by target cells incubated without peptide. Viability was analysed after 72 h of incubation at 37°C, 5% CO2, by two methods: MTT colorimetric assay [3-(4,5-dimethylthiazol-2-yl)-2,5-diphenyltetrazolium bromide] and flow cytometry using PE Annexin V (BD Pharmingen) and 7-AAD (7-aminoactinomycin D).\n(§2) PE Annexin V and 7-AAD (7-Aminoactinomycin D) (BD Pharmingen) Viability Assay. This assay was used to detect and measure the apoptotic process by means of flow cytometry. Apoptosis is characterized by cell morphology changes, nuclear condensation, pyknosis, and also by a series of biochemical events causing mitochondrial membrane and nuclear DNA degradation. Phosphatidylserine, which is normally present in the inner layer of the lipid bilayer of the cell membrane, is exposed at the surface of the cells undergoing various stages of apoptosis. Annexin V has great affinity to phosphatidylserine residue, and 7-AAD was used as vital nuclear DNA stain. 96-well cell culture plates were used in our study. The first (1) and last (12) columns of wells only contained culture medium (RPMI 1640) in order to prevent the edge effect. Columns 2 and 11 of wells only contained peptide-free cell suspension (negative control). Columns 3–10 contained target cells and consecutive peptide dilutions. We worked in triplicate for the two cell lines and all the peptide concentrations we used. After 72 h of incubation at 37°C, 5% CO2, adherent cells were detached by trypsination (3–10 minutes of incubation at 37°C with Eurobio trypsin). The cell suspension was distributed in such a manner that each FACS tube had 1 × 10^5 cells. 3 FACS tubes were assessed; the first FACS tube contained unmarked cells, the second FACS tube contained Annexin V PE, and the third FACS tube contained Annexin V PE/7-AAD. Data collection and interpretation were done on a FACS Canto II flow cytometer using the FACSDiva Software (Becton Dickinson) (Figure 3).\nFlow cytometry allowed apoptosis assessment for the MDA-MB-231 cell line incubated with the […]. 5000 events/well were acquired, and the results were compared with the viability of the peptide-free cells (negative control)."}, "[2]": {"details": "cited from earlier work", "source_text": "This peptide is water soluble and nonhaemolytic at its effective and amphiphilic antimicrobial concentrations. At small concentrations, it inhibits the growth of numerous species of bacteria and fungi, and it induces osmotic lysis in protozoa ... || According to the product specifications, this peptide is soluble in distilled water with 0.1% TFA. As the solution is meant to be inserted into cell culture medium, we have chosen RPMI as the most suitable medium. This medium also allowed us to maintain an optimum pH (7.2–7.4) as we inserted the peptide solution. The extemporaneous peptide solution was utilized immediately after preparation."}, "MCF7 tumour cell line": {"system": "MCF7 tumour cell line", "details": "cited from earlier work", "source_text": "MDA-MB-231 is an adherent breast adenocarcinoma cell line, one of the three known breast cancer cell lines: MCF-7, MDA-MB-231, and T-47D [18, 19]."}, "[3]": {"system": "M14K (human mesothelioma) tumour cell line", "assay": "MTT viability assay (cytostasis %)", "assay_type": "cell-based", "details": "72 h incubation in RPMI, mean of three absorbance readings", "method": "(§3) Consecutive peptide dilutions with RPMI 1640 (Sigma Aldrich) were used, whereas the working concentrations were 120 μM, 60 μM, 30 μM, 15 μM, 7.5 μM, 3.5 μM, 1.8 μM, and 0.9 μM in a final volume of 200 μL/well. […] Everything was treated in a sterile fashion.\nas §1\n(§4) [3-(4,5-Dimethylthiazol-2-yl)-2,5-diphenyltetrazolium Bromide] […] Absorbance was measured at 570 nm against a 620 nm reference wavelength using a Tecan Sunrise plate reader. Relying on the absorbance values read in the cells incubated with the peptide studied (A peptide cells) and depending on the absorbance value read in peptide-free cells (A negative control), we calculated the cytostasis percentage, that is, the percentage of cells affected by apoptosis of the whole number of cells in any of the wells analysed. […]"}, "[4]": {"system": "M14K (human mesothelioma) tumour cell line", "assay": "PE Annexin V / 7-AAD flow cytometry apoptosis assay", "assay_type": "cell-based", "details": "for Q1 (7-AAD+) dead cells / Q2 (7-AAD+ Annexin V+) late apoptotic cells / Q4 (Annexin V+ 7AAD−) early apoptotic cells: 72 h in RPMI, 5000 events/well; for Q1 (7-AAD+) dead cells: negative control 2.1; for Q2 (7-AAD+ Annexin V+) late apoptotic cells: negative control 3.8; for Q4 (Annexin V+ 7AAD−) early apoptotic cells: negative control 4.5", "method": "as §1, §2"}, "[5]": {"system": "MDA-MB-231 (breast adenocarcinoma) tumour cell line", "assay": "MTT viability assay (cytostasis %)", "assay_type": "cell-based, human", "details": "MDA-MB-231, 72 h incubation in RPMI, mean of three absorbance readings", "method": "as §3, §1, §4"}, "[6]": {"details": "at its effective antimicrobial concentrations; cited from earlier work", "source_text": "This peptide is water soluble and nonhaemolytic at its effective and amphiphilic antimicrobial concentrations. At small concentrations, it inhibits the growth of numerous species of bacteria and fungi, and it induces osmotic lysis in protozoa ..."}}, "note": "Values joined by “and” are separate entries in the source; they are usually repeats but may differ in a detail not shown here. Equal values may be shown once. “Also recorded” adds a separate entry of the source. Ends that are not written are not given here."}
{"sequence": "GIGKFLHSAKKFGKAFVGEIMNS [Magainin II]", "values": [{"measurement": "Q1—dead cells (7-AAD+)", "setting": "[1]; 60 μM peptide", "result": 0.8, "unit": "%"}, {"measurement": "Q2—late apoptosis cells (7-AAD+ Annexin V+)", "setting": "[1]; 60 μM peptide", "result": 19.6, "unit": "%"}, {"measurement": "Q4—early apoptosis cells (Annexin V+ 7-AAD−)", "setting": "[1]; 60 μM peptide", "result": 3.4, "unit": "%"}, {"measurement": "Q3—living cells (7-AAD− Annexin V−)", "setting": "[1]; 60 μM peptide", "result": 76.2, "unit": "%"}, {"measurement": "Q1—dead cells (7-AAD+)", "setting": "[1]; 120 μM peptide", "result": 1.4, "unit": "%"}, {"measurement": "Q2—late apoptosis cells (7-AAD+ Annexin V+)", "setting": "[1]; 120 μM peptide", "result": 47.5, "unit": "%"}, {"measurement": "Q4—early apoptosis cells (Annexin V+ 7-AAD−)", "setting": "[1]; 120 μM peptide", "result": 14.8, "unit": "%"}, {"measurement": "Q3—living cells (7-AAD− Annexin V−)", "setting": "[1]; 120 μM peptide", "result": 36.3, "unit": "%"}, {"measurement": "solubility in water", "setting": "[2]", "result": "water soluble"}, {"measurement": "solubility", "setting": "[2]; distilled water with 0.1% TFA, ref product specifications (SIGMA M7402-1MG)", "result": "soluble"}, {"measurement": "concentration with cytotoxic effect", "setting": "MCF7 tumour cell line", "result": "exceed 200 μg/mL and > 80 μM"}, {"measurement": "cytostasis % (MTT test)", "setting": "[3]; 15 μM peptide", "result": "absent"}, {"measurement": "cytostasis % (MTT test)", "setting": "[3]; 30 μM peptide", "result": "significantly lower"}, {"measurement": "Q1 (7-AAD+) dead cells", "setting": "[4]; 60 μM peptide", "result": 0.3, "unit": "%"}, {"measurement": "Q2 (7-AAD+ Annexin V+) late apoptotic cells", "setting": "[4]; 60 μM peptide", "result": 8.6, "unit": "%"}, {"measurement": "Q4 (Annexin V+ 7AAD−) early apoptotic cells", "setting": "[4]; 60 μM peptide", "result": 5.9, "unit": "%"}, {"measurement": "Q1 (7-AAD+) dead cells", "setting": "[4]; 120 μM peptide", "result": 2.8, "unit": "%"}, {"measurement": "Q2 (7-AAD+ Annexin V+) late apoptotic cells", "setting": "[4]; 120 μM peptide", "result": 47.8, "unit": "%"}, {"measurement": "Q4 (Annexin V+ 7AAD−) early apoptotic cells", "setting": "[4]; 120 μM peptide", "result": 13.5, "unit": "%"}, {"measurement": "cell population that underwent apoptosis", "setting": "[4]; 72 h, flow cytometry PE Annexin V/7-AAD, concentration not stated in the sentence (values match 120 μM)", "result": "over 50%"}, {"measurement": "cytostasis % (MTT test)", "setting": "[5]; 15 μM peptide", "result": "absent"}, {"measurement": "cytostasis % (MTT test)", "setting": "[5]; 30 μM peptide", "result": "persisted; also recorded: significantly lower"}, {"measurement": "haemolysis", "setting": "[6]", "result": "nonhaemolytic"}]}
